Columns and labels:
[1] = Log D partition coefficient, CHI method; assay type: physicochemical
Method: The Log D partition coefficient was measured using the CHI method.

[2] = Thermodynamic water solubility; assay type: physicochemical
[3] = system: Septoria tritici (SEPTTR); assay: Evaluation of fungicidal activity: leaf blotch of wheat, disease control on wheat seedlings; assay type: in vivo; conditions: for 3DC % control / 3DP % Control: wheat (variety Yuma) seedlings; for fungicidal activity against the fungi responsible for leaf blotch of wheat (Septoria tritici): in comparison with example 5 of U.S. Pat. No. 8,748,461
Method: Example 3: Evaluation of Fungicidal Activity: Leaf Blotch of Wheat (Mycosphaerella graminicola; Anamorph: Septoria tritici; Bayer code […]) Technical grades of materials were dissolved in acetone, which were then mixed with nine volumes of water containing 110 ppm Triton X-100. The fungicide solutions were applied onto wheat seedlings using an automated booth sprayer to run-off. All sprayed plants were allowed to air dry prior to further handling. Wheat plants (variety Yuma) were grown from seed in a greenhouse in 50% mineral soil/50% soil-less Metro mix until the first leaf was fully emerged, with 7-10 seedlings per pot. These plants were inoculated with an aqueous spore suspension of Septoria tritici either prior to or after fungicide treatments. After inoculation the plants were kept in 100% relative humidity (one day in a dark dew chamber followed by two to three days in a lighted dew chamber at 20° C.) to permit spores to germinate and infect the leaf. The plants were then transferred to a greenhouse set at 20° C. for disease to develop. When disease symptoms were fully expressed on the 1st leaves of untreated plants, infection levels were assessed on a scale of 0 to 100 percent disease severity. Percent disease control was calculated using the ratio of disease severity on treated plants relative to untreated plants.

| chromatographic logD [1] | H2O solubility (ppm) (thermodynamic) [2] | Compound | 3DC % control ([3]; 6.25 g/ha) | 3DC % control ([3]; 25 g/ha) | 3DC % control ([3]; 100 g/ha) | 3DC % control ([3]; rate g/ha) | 3DP % Control ([3]; 1.56 g/ha) | 3DP % Control ([3]; 6.25 g/ha) | 3DP % Control ([3]; 25 g/ha) | 3DP % Control ([3]; 100 g/ha) | fungicidal activity against the fungi responsible for leaf blotch of wheat (Septoria tritici) [3] |
| --- | --- | --- | --- | --- | --- | --- | --- | --- | --- | --- | --- |
| 3.02 | 28.39 ppm | N#Cc1ccc(Oc2ccc(C(F)(F)C(O)(Cn3cnnn3)c3ccc(F)cc3F)nc2)cc1 (stereo not drawn) [Example 5*, 4-(6-(2-(2,4-difluorophenyl)-1,1-difluoro-2-hydroxy-3-(1H-tetrazol-1-yl)propyl)pyridin-3-yloxy)benzonitile, reference compound] | 34% | 47% | 58% | 22% | 22% | 36% | 50% | 64% | – |
| 2.83 | 23.04 ppm | N#Cc1ccc(Oc2ccc(C(F)(F)C(O)(Cn3ncnc3S)c3ccc(F)cc3F)nc2)cc1 (stereo not drawn) [Example 2, 4-((6-(2-(2,4-difluorophenyl)-1,1-difluoro-2-hydroxy-3-(5-thioxo-4,5-dihydro-1H-1,2,4-triazol-1-yl)propyl)pyridin-3-yl)oxy)benzonitrile] | 94% | 99% | 100% | 80% | 94% | 98% | 100% | 100% | improved fungicidal activity |
| 2.9 | 37.33 ppm | N#Cc1ccc(Oc2ccc(C(F)(F)C(O)(Cn3cncn3)c3ccc(F)cc3F)nc2)cc1 (stereo not drawn) [Example 1, 4-((6-(2-(2,4-difluorophenyl)-1,1-difluoro-2-hydroxy-3-(1H-1,2,4-triazol-1-yl)propyl)pyridin-3-yl)oxy)benzonitrile] | 100% | 100% | 100% | 99% | 96% | 96% | 96% | 100% | improved fungicidal activity |
| 3.32 | 5.15 ppm | OC(Cn1cncn1)(c1ccc(F)cc1F)C(F)(F)c1ccc(OCc2cccc(F)c2F)cn1 (stereo not drawn) [Example 45*, reference compound] | 86% | 85% | 86% | 78% | 58% | 89% | 93% | 95% | – |
